Converted amounts (≈) assume the structure as drawn. Read-outs that look alike come from different tables or passages of the source.
What was measured:
[1] = Intrinsic clearance in human liver microsomes; assay type: in vitro ADME; details: human liver microsomes 0.5 mg/mL, 5 μM test compound, 37° C.; read-out: Human liver microsome (Clint μL/min/mg protein)
Description: (§1) Rat or human liver microsomes (0.5 mg/mL; Corning) were incubated with 5 μM test compound at 37° C. on a shaking platform (150 rpm). Samples were taken at 0, 6, 12, 18, 24 and 60 min and test compound concentrations were determined by LCMS against a calibration curve.

[2] = Plasma protein binding (PPB), rapid equilibrium dialysis, rat plasma; assay type: in vitro ADME; details: 5 μM test compound, dialysis 5 hrs at 37° C.
Description: The fraction unbound in plasma was determined using ThermoScientific™ Pierce™ Rapid Equilibrium Dialysis Technology (Single-Use plate with inserts, 8K MWCO). 5 μM test compound was spiked into human or rat plasma (300 μL) and dialysed against 146.5 mM phosphate buffer (500 μL) for 5 hrs at 37° C., shaking at 1200 rpm. Reference samples from the non-dialysed plasma were taken before the incubation to enable an assessment of recovery. Test compound concentrations were determined in plasma and buffer compartments by LCMS against a calibration curve. The fraction unbound in plasma was determined using standard methodology (Waters N J et al (2008) J Pharm Sci 97(10); 4586-95). Results are presented as percent plasma protein bound (% PPB).

[3] = Pharmacokinetics following a single oral dose in male Sprague-Dawley rats; assay type: in vivo; details: rat, single po dose (nominal 10 mg/kg; actual dose per row in column Dose po), 10% DMSO/10% cremophor/80% SWFI, plasma
Description: Pharmacokinetic studies of the compounds in Table 13 were performed to assess the pharmacokinetics following a single oral dose in male Sprague-Dawley rats. Two rats were given a single po dose of 5 mL/kg of a nominal 2 mg/mL (10 mg/kg) composition of test compound in vehicle. Following dosing, blood samples were collected over a period of 24 hours. Sample times were 5, 15 and 30 minutes then 1, 2, 4, 6, 8 and 12 hours. Following collection, blood samples were centrifuged and the plasma fraction analysed for concentration of test compound by LCMS.

[4] = In vitro permeability, Caco-2 model for oral absorption; assay type: in vitro ADME; details: human, apical to basolateral, 50 μM test compound, 37° C.
How it was run: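 Caco-2 monolayers grown on collagen inserts for 3 days, with 50 μM compound added apically and incubated 1 hour at 37° C with shaking. Apical-to-basolateral transport measured by LCMS in both compartments. Monolayer integrity checked by TEER before and after, and by Lucifer Yellow flux.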

Human Factor XIIa = Human Factor XIIa (Homo sapiens (Human), UniProt P00748); test: Factor XIIa inhibitory activity in vitro; assay type: biochemical; details: 25° C., substrate H-DPro-Phe-Arg-AFC; read-out: IC50 (human FXIIa)
Description: (§2) Human Factor XIIa (Enzyme Research Laboratories) was incubated at 25° C. with the fluorogenic substrate H-DPro-Phe-Arg-AFC and various concentrations of the test compound. Residual enzyme activity (initial rate of reaction) was determined by measuring the change in […] at 410 nm and the IC50 value for the test compound was determined.

Human KLK1 = Human KLK1 (Homo sapiens (Human), UniProt P06870); test: Determination of the IC50 for KLK1; assay type: biochemical; details: 25° C., substrate H-DVal-Leu-Arg-AFC
Description: as §2, with “KLK1 (Callbiochem)” for “Factor XIIa (Enzyme Research Laboratories)”, “H-DVal-Leu-Arg-AFC” for “H-DPro-Phe-Arg-AFC”

[5] = Solubility in water and 0.1N HCl (aq); assay type: physicochemical; details: thermodynamic from solid, incubated at 1 mg/mL, 37° C.
Description: Solubility was determined in water and 0.1N HCl (aq). Test compounds were incubated at 1 mg/mL for 24 hrs at 37° C. on a shaking platform (500 rpm). Samples were taken at 1, 4 and 24 hrs and centrifuged at 15,000 g for 10 min. Test compound concentration in the supernatant was determined by LCMS against a standard curve.

[6] = Intrinsic clearance in rat liver microsomes; assay type: in vitro ADME; details: rat liver microsomes 0.5 mg/mL, 5 μM test compound, 37° C.; read-out: rat liver microsome (Clint μL/min/mg protein)
Description: as §1

Human plasma kallikrein [7] = target: T1, Human plasma kallikrein (Homo sapiens (Human), UniProt P03952); test: Determination of the IC50 for plasma kallikrein; assay type: biochemical; details: 25° C., substrate H-DPro-Phe-Arg-AFC; read-out: IC50 (human PKal)
Description: as §2, with “plasma kallikrein (Protogen)” for “Factor XIIa (Enzyme Research Laboratories)”

Human FXIa = Human FXIa (Homo sapiens (Human), UniProt P03951); test: Determination of the % inhibition / IC50 for FXIa; assay type: biochemical; details: for inhibition at 40 µM: read-out: % Inhibition @ 40 μM (human FXIa); for IC50: 25° C., substrate Z-Gly-Pro-Arg-AFC
Description: FXIa inhibitory activity in vitro was determined using standard published methods (see e.g. Johansen et al., Int. J. Tiss. Reac. 1986, 8, 185; Shori et al., Biochem. Pharmacol., 1992, 43, 1209; Sturzebecher et al., Biol. Chem. Hoppe-Seyler, 1992, 373, 1025). […]

[8] = Plasma protein binding (PPB), rapid equilibrium dialysis, human plasma; assay type: in vitro ADME; details: 5 μM test compound, dialysis 5 hrs at 37° C.
Description: The fraction unbound in plasma was determined using ThermoScientific™ Pierce™ Rapid Equilibrium Dialysis Technology (Single-Use plate with inserts, 8K MWCO). […] Reference samples from the non-dialysed plasma were taken before the incubation to enable an assessment of recovery. Test compound concentrations were determined in plasma and buffer compartments by LCMS against a calibration curve. […] Results are presented as percent plasma protein bound (% PPB).

[9] = Predicted plasma clearance (Clp), well-stirred model, rat; assay type: in vitro ADME; details: percentage of hepatic blood flow
Description: (§3) The predicted plasma clearance (Clp) is calculated using the well-stirred model (Rowland M, Benet L Z, and Graham G G. Clearance concepts in pharmacokinetics. J Pharmacokinet Biopharm. (1973) 1:123-136.), one of several models that can be used to extrapolate the in vitro data. The model assumes instantaneous and complete mixing of drug within the liver and is a function of intrinsic clearance, hepatic blood flow and free fraction of drug in the blood. The predicted plasma clearance in mL/min/kg is presented as a percentage of hepatic blood flow (LBF).

Human plasma kallikrein [10] = target: T1, Human plasma kallikrein; test: Determination of the Ki for plasma kallikrein (mixed-model inhibition); assay type: biochemical; details: for Ki: human plasma kallikrein, mixed-model inhibition equation; for Alpha: parameter of the mixed-model equation indicating mechanism of inhibition
Description: Plasma kallikrein inhibitory activity in vitro was determined using standard published methods (e.g. Johansen et al., Int. J. Tiss. Reac. 1986, 8, 185; Shori et al., Biochem. Pharmacol., 1992, 43, 1209; Sturzebecher et al., Biol. Chem. Hoppe-Seyler, 1992, 373, 1025). […]. Residual enzyme activity (initial rate of reaction) was determined by measuring the change in fluorescence at 410 nm. The Ki value for the test compound was determined using the mixed-model inhibition equation (based on Equation 3.2 in: RA Copeland, Evaluation of Enzyme Inhibitors in Drug Discovery, Wiley 2005) in GraphPad Prism. The mixed model equation includes competitive, uncompetitive and noncompetitive inhibition as special cases and the parameter of Alpha to indicate mechanism of inhibition.

[11] = Predicted plasma clearance (Clp), well-stirred model, human; assay type: in vitro ADME; details: percentage of hepatic blood flow
Description: as §3

plasmin = plasmin (Homo sapiens (Human), UniProt P00747); test: Determination of enzyme selectivity: plasmin; assay type: biochemical; details: substrate at Km concentration
Description: (§4) Human serine protease enzymes plasmin, thrombin and trypsin were assayed for enzymatic activity using an appropriate fluorogenic substrate. Protease activity was measured by monitoring the accumulation of liberated fluorescence from the substrate over 5 minutes. The linear rate of fluorescence increase per minute was expressed as percentage (%) activity. The Km for the cleavage of each substrate was determined by standard transformation of the Michaelis-Menten equation.

trypsin = test: Determination of enzyme selectivity: trypsin; assay type: biochemical, human; details: substrate at Km concentration
Description: as §4

thrombin = thrombin (Homo sapiens (Human), UniProt P00734); test: Determination of enzyme selectivity: thrombin; assay type: biochemical; details: substrate at Km concentration
Description: as §4

[12] = simulated gastric fluid, 0.1N HCl (aq), read-out: Solubility 0.1N HCl (aq)
[13] = water, read-out: Solubility Water

T1 sequence (P03952 391-638): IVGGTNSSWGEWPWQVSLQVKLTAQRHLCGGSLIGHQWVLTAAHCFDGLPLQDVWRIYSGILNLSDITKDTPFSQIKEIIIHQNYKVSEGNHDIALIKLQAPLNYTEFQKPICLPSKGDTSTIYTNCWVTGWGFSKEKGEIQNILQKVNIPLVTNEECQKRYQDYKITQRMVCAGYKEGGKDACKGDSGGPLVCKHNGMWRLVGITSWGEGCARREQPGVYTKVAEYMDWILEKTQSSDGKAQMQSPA
T1 sequence (P03952 20-390): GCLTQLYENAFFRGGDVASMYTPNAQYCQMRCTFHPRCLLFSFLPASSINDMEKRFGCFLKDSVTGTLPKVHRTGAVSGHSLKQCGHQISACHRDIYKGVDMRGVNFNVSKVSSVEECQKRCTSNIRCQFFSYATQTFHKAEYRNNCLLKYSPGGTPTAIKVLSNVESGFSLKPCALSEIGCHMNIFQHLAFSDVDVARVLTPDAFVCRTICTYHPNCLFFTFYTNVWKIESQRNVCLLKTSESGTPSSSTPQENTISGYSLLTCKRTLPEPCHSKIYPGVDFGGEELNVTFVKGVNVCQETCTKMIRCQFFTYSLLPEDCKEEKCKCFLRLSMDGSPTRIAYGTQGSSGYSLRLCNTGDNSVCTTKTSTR
Sequence of plasmin (P00747 581-810): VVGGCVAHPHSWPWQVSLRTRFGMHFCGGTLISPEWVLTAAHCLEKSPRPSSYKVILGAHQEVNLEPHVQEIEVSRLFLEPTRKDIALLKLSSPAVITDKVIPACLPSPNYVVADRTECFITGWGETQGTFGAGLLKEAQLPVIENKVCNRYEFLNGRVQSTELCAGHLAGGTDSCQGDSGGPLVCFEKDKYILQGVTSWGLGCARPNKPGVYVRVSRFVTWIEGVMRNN
Sequence of plasmin (P00747 97-580): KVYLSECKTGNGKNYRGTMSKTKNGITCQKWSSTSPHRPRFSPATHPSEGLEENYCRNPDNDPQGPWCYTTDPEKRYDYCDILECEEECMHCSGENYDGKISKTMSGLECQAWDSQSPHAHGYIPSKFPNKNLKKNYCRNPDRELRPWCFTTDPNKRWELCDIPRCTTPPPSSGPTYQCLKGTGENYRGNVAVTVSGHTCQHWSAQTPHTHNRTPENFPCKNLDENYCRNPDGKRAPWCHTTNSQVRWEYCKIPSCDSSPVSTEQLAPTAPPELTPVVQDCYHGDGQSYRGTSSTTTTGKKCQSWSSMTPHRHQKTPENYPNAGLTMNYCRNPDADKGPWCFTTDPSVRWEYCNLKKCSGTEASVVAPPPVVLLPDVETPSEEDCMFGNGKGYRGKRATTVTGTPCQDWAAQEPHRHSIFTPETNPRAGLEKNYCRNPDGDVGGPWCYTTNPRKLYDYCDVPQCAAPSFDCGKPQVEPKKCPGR
Sequence of Human KLK1 (P06870 25-262): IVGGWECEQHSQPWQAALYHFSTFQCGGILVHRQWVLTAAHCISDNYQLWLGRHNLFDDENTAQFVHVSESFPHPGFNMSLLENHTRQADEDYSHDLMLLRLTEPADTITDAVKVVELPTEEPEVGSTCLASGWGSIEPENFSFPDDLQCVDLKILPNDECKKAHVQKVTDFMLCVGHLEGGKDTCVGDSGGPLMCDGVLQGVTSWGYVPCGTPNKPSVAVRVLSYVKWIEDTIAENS
Sequence of Human FXIa (P03951 388-625): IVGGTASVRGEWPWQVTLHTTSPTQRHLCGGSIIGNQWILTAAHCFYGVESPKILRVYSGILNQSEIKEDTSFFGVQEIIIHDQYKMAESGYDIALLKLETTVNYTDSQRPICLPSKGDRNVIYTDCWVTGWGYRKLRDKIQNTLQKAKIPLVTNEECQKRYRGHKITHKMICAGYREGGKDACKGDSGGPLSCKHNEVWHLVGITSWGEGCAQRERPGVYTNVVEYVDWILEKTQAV
Sequence of Human FXIa (P03951 19-387): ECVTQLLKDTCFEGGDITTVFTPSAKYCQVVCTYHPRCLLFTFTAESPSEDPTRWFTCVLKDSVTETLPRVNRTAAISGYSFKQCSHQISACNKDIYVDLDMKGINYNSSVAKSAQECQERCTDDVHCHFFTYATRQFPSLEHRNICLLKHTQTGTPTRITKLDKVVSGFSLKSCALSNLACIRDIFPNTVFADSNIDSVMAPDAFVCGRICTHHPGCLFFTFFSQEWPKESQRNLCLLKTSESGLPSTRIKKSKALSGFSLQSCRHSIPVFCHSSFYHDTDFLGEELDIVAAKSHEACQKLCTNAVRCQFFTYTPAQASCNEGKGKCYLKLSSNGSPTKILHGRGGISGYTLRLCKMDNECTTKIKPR
Sequence of Human Factor XIIa (P00748 373-615): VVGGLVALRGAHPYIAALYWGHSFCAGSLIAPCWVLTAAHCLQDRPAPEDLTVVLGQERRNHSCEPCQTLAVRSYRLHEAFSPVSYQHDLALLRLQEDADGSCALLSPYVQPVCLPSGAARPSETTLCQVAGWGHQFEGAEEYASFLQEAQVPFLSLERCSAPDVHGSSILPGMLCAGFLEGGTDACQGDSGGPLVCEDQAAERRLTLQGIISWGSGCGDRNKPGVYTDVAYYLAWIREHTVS

Row | SMILES | microsomal CLint at 5 μM [1] [µL/min/mg] | fraction unbound at 5 h, 5 μM [2] | Cmax [3] [µg/mL] | Tmax [3] [min] | Papp at 1 h, 50 μM [4] [nm/s] | IC50 (Human Factor XIIa) [µM] | IC50 (Human KLK1) [µM] | solubility [5, 12] [mg/mL] | solubility [5, 13] [mg/mL] | microsomal CLint at 5 μM [6] [µL/min/mg] | IC50 (Human plasma kallikrein [7]) [µM] | inhibition at 40 µM (Human FXIa; 40 μM test compound) [%] | IC50 (Human FXIa) [µM] | fraction unbound at 5 h, 5 μM [8] | Predicted in vivo rat Clp (% LBF) [9] [% LBF] | Ki (Human plasma kallikrein [10]) [µM] | Predicted in vivo human Clp (% LBF) [11] [% LBF] | IC50 (plasmin) [µM] | IC50 (trypsin) [µM] | IC50 (thrombin) [µM] | also measured
1 | COCc1nn(Cc2cnc(N3CCC(F)(F)C3)nc2)cc1C(=O)NCc1c(-n2cnnn2)ccc(OC)c1F [Example 86, 1-{[2-(3,3-Difluoropyrrolidin-1-yl)pyrimidin-5-yl]methyl}-N-{[2-fluoro-3-methoxy-6-(1,2,3,4-tetrazol-1-yl)phenyl]methyl}-3-(methoxymethyl)pyrazole-4-carboxamide] | 4 | 0.03 | 0.981 | 30 | 160 | > 40 | > 40 | 0.05 (≈ 89.5 µM) | 0.001 (≈ 1.79 µM) | 35 | 0.0017 | 99 | 0.477 | 0.1 | 3 | 0.00028 | 2 |  |  |  | Alpha (Human plasma kallikrein [10]): 2.78
2 | COCc1nn(Cc2ccc(Cn3ccccc3=O)cc2)cc1C(=O)NCc1ccccc1-n1cnnn1 [Example 74, 3-(methoxymethyl)-1-({4-[(2-oxopyridin-1-yl)methyl]phenyl}methyl)-N-{[2-(1,2,3,4-tetrazol-1-yl)phenyl]methyl}pyrazole-4-carboxamide] |  |  |  |  | 20 | > 40 | > 40 |  |  |  | 0.0176 | 8 | > 40 |  |  |  |  | > 40 | > 40 | > 40 | 
3 | COCc1nn(Cc2ccc(Cn3ccccc3=O)cc2)cc1C(=O)NCc1cc(OC)ccc1C#N [Example 37, N-[(2-cyano-5-methoxyphenyl)methyl]-3-(methoxymethyl)-1-({4-[(2-oxopyridin-1-yl)methyl]phenyl}methyl)pyrazole-4-carboxamide] | 48 | 0.05 |  |  | 200 | > 40 | > 40 |  |  | 73 | 0.283 | 7 | > 40 | 0.08 | 11 |  | 16 | > 40 | > 40 | > 40 | 
4 | COCc1nn(Cc2ccc(Cn3cc(F)ccc3=O)cc2)cc1C(=O)NCc1c(C#N)ccc(OC)c1F [Example 53, N-[(6-cyano-2-fluoro-3-methoxyphenyl)methyl]-1-({4-[(5-fluoro-2-oxopyridin-1-yl)methyl]phenyl}methyl)-3-(methoxymethyl)pyrazole-4-carboxamide] | 104 | 0.04 |  |  | 130 | > 40 | > 40 |  |  | 77 | 0.0017 | 5 | > 40 | 0.1 | 10 |  | 35 | > 40 | > 40 | > 40 | 
5 | COc1ccc(C#N)c(CNC(=O)c2cn(Cc3ccc(Cn4ccccc4=O)cc3)nc2N)c1F [Example 43, 3-amino-N-[(6-cyano-2-fluoro-3-methoxyphenyl)methyl]-1-({4-[(2-oxopyridin-1-yl)methyl]phenyl}methyl)pyrazole-4-carboxamide] | 10 | 0.08 |  |  | 20 | > 4 | > 4 |  |  | 5 | 0.0006 | 27 | > 40 | 0.12 | 2 |  | 8 | > 40 | > 40 | > 40 | 
6 | COCc1nn(Cc2ccc(Cn3ccccc3=O)cc2)cc1C(=O)NCc1nccc(OC)c1C [Example 22, N-[(4-methoxy-3-methylpyridin-2-yl)methyl]-3-(methoxymethyl)-1-({4-[(2-oxopyridin-1-yl)methyl]phenyl}methyl)pyrazole-4-carboxamide] |  | < 0.01 | 1.02 | 60 |  | > 40 | > 40 | 0.9 (≈ 1850 µM) | 0.06 (≈ 123 µM) | 68 | 0.0049 |  | > 40 | 0.08 | <1.6 | 0.0019 | 7 |  |  |  | inhibition at 40 µM (Human FXIa): 5%; Alpha (Human plasma kallikrein [10]): 29
